Data from article PMC5556019, “Targeting Apolipoprotein E/Amyloid β Binding by Peptoid CPO_Aβ17-21 P Ameliorates Alzheimer’s Disease Related Pathology and Cognitive Decline” (Scientific Reports, 2017).
Numbered stars: 1 amine (or outer) side, 2 acyl side, 3 side chain; on linkers, the order of the positions; unused ones are H or OH. Bridge positions count the residues as written; N and C are the ends. Square brackets hold non-standard residues; d marks the D form. Peptide text beside a SMILES is read from it. ξ: configuration not given here. N(CH2CH2CO)Gly = O=C(CN(CCC(=O)[*:3])[*:1])[*:2]; Nphe = O=C(O)CNCc1ccccc1; Nleu = CC(C)CNCC(=O)O; ξP = O=C(O)C1CCCN1; Sar = CNCC(=O)O

Tests used:
APP/PS1 Tg mice [1] = experiment: Astrocytosis and microgliosis by GFAP, CD11b and Iba1 immunoreactivity; format: in vivo, mouse; settings: semi-quantitative rating 0-4, versus vehicle
Procedure: (§1) The effect of CPO_Aβ17-21 P on Aβ deposition was tested in APP/PS1 Tg mice with plaque pathology. This AD mouse model develops plaque pathology from the age of 3 months. Animals were divided into two groups and received intraperitoneally (i.p.) injections of 0.2 mg of CPO_ Aβ17–21 P per mouse in sterile saline (n = 11, 5 male, 6 female) or saline alone (n = 10, 5 male, 5 female) as a control twice weekly for 4 months, beginning at age 3 months. During the treatment, veterinary staff monitored animals for any signs of toxicity, such as changes in body weight, physical appearance, and altered behavior. Animals were sacrificed a week after administration of the last treatment dose and behavioral testing. All mouse care and experimental procedures were compliant with guidelines of animal experimentation and were approved by the Institutional Animal Care and Use Committee at the New York University School of Medicine.
Mice were anesthetized with sodium pentobarbital (150 mg/kg, i.p.) and blood was collected via cardiac puncture and plasma was separated by centrifugation. Animals were perfused transaortically. The brains and internal organs were collected and cut into halves, one half immersion-fixed in periodate-lysine paraformaldehyde (PLP) for histopathological analysis, and another half snap-frozen for biochemical studies as previously described. Serial coronal brain sections (40 μm) were cut evenly spaced every 400 μm μm along the entire rostro-caudal brain axis and stained for immunohistochemical analysis with: (1) a mixture of anti-Aβ monoclonal antibodies 6E10/4G8 (1 :2000) (Covance, Princeton, NJ), (2) polyclonal anti-glial fibrillary acidic protein (GFAP) antibody (1:1000) (Dako, Carpinteria, CA), (3) polyclonal anti-Iba1 antibody (1:1000) (Wako Chemicals, Richmond, VA) and (4) monoclonal anti-CD11b (1: 500) (Serotec, Raleigh, NC). To measure treated mice brain total amyloid burden change, two different anti-Aβ monoclonal antibodies with distinct epitopes 6E10 (epitope Aβ1–16) and 4G8 (epitope Aβ17–24) were used[38]. To examine brain inflammation levels associated with treatment, we assessed the degree of astrocytosis with GFAP immunoreactivity and the degree of microgliosis with Iba1 and CD11b immunoreactivity as previously published, [37], [39], [40]. GFAP is a component of the glial intermediate filaments that form part of the cytoskeleton and is found predominantly in astrocytes. CD11b is a protein subunit that forms integrin alpha-M beta-2 (αMβ2) molecule, also known as MAC-1 or complement receptor 3 (CR3). CD11b monoclonal antibodies are commonly used for detection of microglial activation at the earliest stages of plaque development. In addition, Iba1 (ionized calcium binding adaptor molecule) antibody was used to label the entire microglia population including activated and resting microglia, a marker for detecting generic microglia, [43]. Immunohistochemistry was performed on free floating coronal brain sections. Details of the procedure and techniques were described previously, [37], [39], [40]. […] Human Alzheimer disease patients brain sections were used for positive control immunostaining, sequential mouse brain sections with omission of the primary antibody were used for negative immunostaining controls.
The assessment of astrocytosis and microgliosis were based on a semi-quantitative analysis, using methods we have previously published by a rater blinded to the treatment status of the mice[19], [37], [39], [40]. Prior to analysis, brains were microscopically examined and rated on a scale from 0–4, in increments of 0.5, depending on the degree of pathology and/or the activation stage of the glial cells. All stained cortical and hippocampal sections were analyzed at 10x magnification. Approximately 8 cortical sections and 6 hippocampal sections were analyzed per animal. […]

[2] = test system: apoE4 mediated Aβ42 aggregation; experiment: Thioflavin T assay of apoE4 mediated Aβ42 aggregation; format: biochemical, human
Procedure: Peptide Aβ42 or peptoid CPO_Aβ17-21 P were incubated alone at a concentration of 100 µM over a period of 7–10 days at 37 °C in 100 mM Tris buffer (pH 7.4). […] In aggregation inhibition experiments, apoE4 was pre-incubated with CPO_Aβ17-21 P in a molar ratio of 1:2 for 6 hrs at 37 °C followed by addition to freshly reconstituted Aβ42 on ice (molar ratio 100:1:2, Aβ42:apoE4:peptoid). As a control, Aβ42 was also incubated with CPO_Aβ17-21 P at a molar ratio of 100:2. For peptide Aβ40 all the experiments were conducted under the same conditions as Aβ42 except the peptide concentration was 400 µM. The molar ratio of Aβ40:apoE4:CPO_Aβ17-21 P was 100:1:2. (400 µM Aβ40:4 µM apoE4:8 µM CPO_Aβ17-21 P). Fibril formation by the different peptides at various time points was evaluated by a standard Thioflavin-T assay according to previously published protocols, [33].The samples were diluted in buffer containing 50 mM glycine, 2 µM Thioflavin T pH 9.2, and read on a Molecular Devices SpectraMax M2 spectrophotometer (Sunnyvale, CA) at excitation and emission wavelengths 440 and 482 nm.

APP/PS1 Tg mice [3] = experiment: Total amyloid burden by 6E10/4G8 immunohistochemistry; format: in vivo, mouse; settings: one-tailed unpaired t-test
Procedure: as §1, with “All mouse care and experimental procedures were compliant with guidelines of animal experimentation and were approved by the Institutional Animal Care and Use Committee at the New York University School of Medicine.” left out
Mice were anesthetized with sodium pentobarbital (150 mg/kg, i.p.) and blood was collected via cardiac puncture and plasma was separated by centrifugation. […] To examine brain inflammation levels associated with treatment, we assessed the degree of astrocytosis with GFAP immunoreactivity and the degree of microgliosis with Iba1 and CD11b immunoreactivity as previously published, [37], [39], [40]. […]
Amyloid burden was measured by a Bioquant stereology (BIOQUANT Image Analysis Corporation, Nashville, TN) semi-automated image analysis system using a randomized and unbiased sampling scheme according to our previous published protocol, [19], [37], [39], [40]. […]

APP/PS1 Tg mice [4] = experiment: Plasma total cholesterol level; format: in vivo; settings: 0.2 mg per mouse i.p. twice weekly for 4 months; p > 0.05
Procedure: as §1
Plasma cholesterol level was measured by using a Cholesterol E kit (Wako Diagnostics, Richmond, VA)[45]. The Cholesterol E is an enzymatic colorimetric method for the quantitative determination of total cholesterol in the blood.

With `CC(C)CN1CC(=O)N2CCCC2C(=O)N(Cc2ccccc2)CC(=O)N(Cc2ccccc2)CC(=O)N(C)CC(=O)N(CC(N)=O)CCC1=O` (centres unmarked) [CPO_Aβ17-21 P] ([Nleu][ξP][Nphe][Nphe][Sar][N(CH2CH2CO)Gly]-NH2; lactam N-6) the “cortical astrogliosis (GFAP immunoreactivity)” value (APP/PS1 Tg mice [1]) was “no significant effect”, the “cortical microgliosis (CD11b immunoreactivity)” value (APP/PS1 Tg mice [1]) was “decreased” and the “cortical microgliosis (Iba1 immunoreactivity)” value (APP/PS1 Tg mice [1]) was “reduced”. For the same compound, the “hippocampal astrogliosis (GFAP immunoreactivity)” value (APP/PS1 Tg mice [1]) was “decreased”, the “hippocampal microgliosis (CD11b immunoreactivity)” value (APP/PS1 Tg mice [1]) was “no significant effect” and the “hippocampal microgliosis (Iba1 immunoreactivity)” value (APP/PS1 Tg mice [1]) was “no significant effect”. The “inhibition of apoE4 mediated Aβ42 aggregation” value ([2]; 100 µM Aβ42, molar ratio 100:1:2 Aβ42:apoE4:peptoid, apoE4 pre-incubated 6 hrs 37 °C, p = 0.0011) was “significant inhibition”, the “Aβ42 fibril formation with peptoid versus Aβ42 alone” value ([2]; Aβ42 + peptoid without apoE4, molar ratio 100:2) was “no significant difference” and the “total amyloid burden (6E10/4G8 immunoreactivity), cortex” value (APP/PS1 Tg mice [3]; p = 0.0226 versus vehicle) was “significant reduction”. The “total amyloid burden (6E10/4G8 immunoreactivity), hippocampus” value (APP/PS1 Tg mice [3]; p = 0.0361 versus vehicle) was “significant reduction” and the “plasma total cholesterol level, treated versus vehicle” value (APP/PS1 Tg mice [4]) was “no significant difference”.
